One assay concerns the target DNMT1 (Homo sapiens, UniProt P26358). Kind of assay: DNMT1 biochemical activity, breaklight assay and/or SPA assay. To be noted: binned activity in either the breaklight or the SPA assay; for IC50: read-out: DNMT1 BioChemical (pIC50 category) (converted). The protocol: DNMT1 breaklight in vitro assays were conducted in a total volume of 50 μl in a standard 384 well format, using black non-binding surface microplates (Corning 3575). […] Negative control wells used 5 μl of DNMT1 and 5 μl of oligonucleotide but 0 μM SAM. All reagents were made up in 1× assay buffer (20 mM Tris pH 6.8, 25 mM NaCl, 0.5 mM MgCl2, 0.01% Triton X100 and 1 mM DTT). The reaction was incubated at 26° C. for 45 min and then stopped with the addition of 40 μl detection reagent. Detection reagent, made up in 1× Gla assay buffer (20 mM Tris pH 8.0, 80 mM NaCl, 0.75 mM MgCl2, 0.01% Triton X100 and 1 mM DTT) has a final concentration of 100 μM SAH (Sigma #A9384) and 0.0008 units/μl Gla1 restriction endonuclease (Sibenzyme #E494). Following addition of the detection reagent the plate was incubated in the dark at room temperature for 5 hr. Fluorescence intensity was then measured on the PHERAstar FS (BMG Labtech) at Ex 485 nm and Em 520 nm, with a gain of 400 and an integration time of 100 ms.
Biochemical activity of DNMT1 analyzed using SPA technology. Plates (Griener 784075) were pre-stamped with 100 nL/well of compound (11-point, 3-fold serial dilution). […] Low control wells contained 5 μL of buffer instead of enzyme. Following a 40 minute incubation, the reaction was quenched upon the addition of 10 μL of stop mixture containing 1 mM SAM (Sigma A7007) and 2 mg/mL PEI beads (Perkin Elmer RPNQ0098). Plates were sealed, centrifuged for 1 min and then read on a Viewlux (Perkin Elmer) using the 613 nm emission filter/300 s read time following a 30 minute dark adapt. Assay conditions prior to quench consisted of 40 nM DNMT1 (601-1600, produced internally), 100 nM 3H-SAM (American Radiolabeled Chemicals ART 0288), 900 nM SAM (New England BioLabs B9003S) and 200 nM hemi methylated DNA oligonucleotide (synthesized at Integrated DNA Technologies, 5′-[…]-3′) in 50 mM HEPES (pH 8.0), 2 mM MgCl2, 1 mM DTT, 0.01% NP-40 and 0.01% BSA.
Comments • 1. […] Where a field is empty, the compound was not tested in that assay.

In assay [1] the test system is erythroid progenitor cells (EPCs). Kind of assay: Fetal hemoglobin (HbF) ELISA in day 7 erythroid progenitor cells. The assay is classed as cell-based, human. The note with it: Homo sapiens, Erythroid progenitor cell, HbF ELISA, day 7 EPCs, 5 days; read-out: EPC ELISA (pEC50 category) (converted). As to the method: Day 7 EPCs were cultured in duplicate plates with serially diluted Compound A for 5 days at 37° C. Wells were then analyzed for either induction of fetal hemoglobin (HbF,HbF ELISA) or cell growth (Cell Titer-Glo). In both cases, signal was normalized to vehicle-control treated cells.
Culture, Expansion, and Characterization of Day 7 Erythroid Progenitor Cells (EPC)s
All donors provided written informed consent for use of their samples, and the collection and use of the samples received institutional review board approval. All cryopreserved human bone marrow CD34+ cells used here were obtained from AlICells (Emeryville, Calif.) and were generally from different donors. The CD34+ cells were cultured to generate EPCs at day 7. Briefly, 1 million cells were cultured in 5% CO2, 5% O2 at 37° C. in H3000 Stemspan media (StemCell Technologies Vancouver, BC, Canada) supplemented with 2 mM L-glutamine, 40 μg/mL human low-density lipoproteins (StemCell Technologies), 10 ng/mL recombinant human (rh) interleukin IL-3 (R&D Systems, Minneapolis, Minn.), 100 ng/mL rh stem cell factor (R&D Systems), and 0.5 U/mL rh erythropoietin (Invitrogen, Grand Island, N.Y.). Cells were split and refed on day 4 with complete culture media described above and harvested on day 7 for evaluation of erythroid marker expression and assessment of γ-globin induction. Day 7 EPCs were then frozen in liquid nitrogen at 5 to 10 million cells/mL in 95% fetal bovine serum (FBS; Invitrogen) with 5% DMSO for subsequent use.
At the time of compound treatment, frozen day 7 EPCs prepared as described above were thawed, washed once and re-suspended in complete culture media as described above with the exception of an increase of rhEPO to 3 U/mL. Cells were counted and diluted to […] for plating into assay plates. Cells were then dispensed, at 30 μL per well with Multidrop™ Combi Reagent Dispenser (Thermo Scientific), into 384-well cell culture plates into which test compounds were pre-dispensed at 100 nL/well. Black Clear Bottom (Greiner Bio-One; 781090) and White (Greiner Bio-One; 781080) plates were used for ELISA and Cell Titer-Glo assays, respectively. The final cell density in the assays is 1,000 cells per well, with final compound concentrations between 33 nM (highest) and […] (lowest) for the 22-points serial dilution.
Fetal Hemoglobin (HbF) ELISA
Coating anti-HbF Ab (Bethyl Lab; cat. A80-136A) was diluted by 100-fold in the coating buffer (0.05 M carbonate-bicarbonate, pH 9.6), and then 20 μL/well was added to a 384-well MaxiSorp ELISA plate (Thermo Fisher; cat. 464718). After 1 hour incubation at room temperature, the plates were washed twice with ELISA washing buffer (50 mM Tris, 0.05% Tween 20, pH 8.0) with an EL406 plate washer (BioTek, Winooski, Vt.). Then, 40 μL/well of blocking buffer consisting of 50 mM Tris and 1% BSA (pH 8.0) was added to the plate and stored at 4° C. with cover sheet overnight, or until time of the assay. The coated ELISA plates were stable for up to 30 days at 4° C. On the day of assay, the plates were washed twice with ELISA washing buffer prior to addition of cell lysate.
After 5 days at 37° C. with 5% CO2 cell culture plates for ELISA assay were put into −80° C. freezer for a minimum of 2 hours. After thawing at room temperature, 30 μL of cell lysis buffer (Invitrogen; cat. FNN0011, supplemented with 1× protease inhibitor) was added to each well and the resulting cell lysate was mixed eight times with a Cybi-Well (Jena, Germany) pipettor. Following the mixing procedure, 20 μL/well of lysate was transferred to the coated ELISA plates described above followed by a 1 hour incubation at room temperature. The ELISA assay plates were washed three times with ELISA wash buffer. 20 μL per well of 1:75,000 to 100,000 diluted horseradish peroxidase (HRP) conjugate detection antiHbF Ab (Bethyl Labs; cat. A80-136P, diluted in 50 mM Tris [pH 8.0], 1% BSA, 0.05% Tween-20) was then added. […]

Where a name gives a salt, the structure may show the parent alone.

Chain of DNMT1 (P26358 whole entry, looked up): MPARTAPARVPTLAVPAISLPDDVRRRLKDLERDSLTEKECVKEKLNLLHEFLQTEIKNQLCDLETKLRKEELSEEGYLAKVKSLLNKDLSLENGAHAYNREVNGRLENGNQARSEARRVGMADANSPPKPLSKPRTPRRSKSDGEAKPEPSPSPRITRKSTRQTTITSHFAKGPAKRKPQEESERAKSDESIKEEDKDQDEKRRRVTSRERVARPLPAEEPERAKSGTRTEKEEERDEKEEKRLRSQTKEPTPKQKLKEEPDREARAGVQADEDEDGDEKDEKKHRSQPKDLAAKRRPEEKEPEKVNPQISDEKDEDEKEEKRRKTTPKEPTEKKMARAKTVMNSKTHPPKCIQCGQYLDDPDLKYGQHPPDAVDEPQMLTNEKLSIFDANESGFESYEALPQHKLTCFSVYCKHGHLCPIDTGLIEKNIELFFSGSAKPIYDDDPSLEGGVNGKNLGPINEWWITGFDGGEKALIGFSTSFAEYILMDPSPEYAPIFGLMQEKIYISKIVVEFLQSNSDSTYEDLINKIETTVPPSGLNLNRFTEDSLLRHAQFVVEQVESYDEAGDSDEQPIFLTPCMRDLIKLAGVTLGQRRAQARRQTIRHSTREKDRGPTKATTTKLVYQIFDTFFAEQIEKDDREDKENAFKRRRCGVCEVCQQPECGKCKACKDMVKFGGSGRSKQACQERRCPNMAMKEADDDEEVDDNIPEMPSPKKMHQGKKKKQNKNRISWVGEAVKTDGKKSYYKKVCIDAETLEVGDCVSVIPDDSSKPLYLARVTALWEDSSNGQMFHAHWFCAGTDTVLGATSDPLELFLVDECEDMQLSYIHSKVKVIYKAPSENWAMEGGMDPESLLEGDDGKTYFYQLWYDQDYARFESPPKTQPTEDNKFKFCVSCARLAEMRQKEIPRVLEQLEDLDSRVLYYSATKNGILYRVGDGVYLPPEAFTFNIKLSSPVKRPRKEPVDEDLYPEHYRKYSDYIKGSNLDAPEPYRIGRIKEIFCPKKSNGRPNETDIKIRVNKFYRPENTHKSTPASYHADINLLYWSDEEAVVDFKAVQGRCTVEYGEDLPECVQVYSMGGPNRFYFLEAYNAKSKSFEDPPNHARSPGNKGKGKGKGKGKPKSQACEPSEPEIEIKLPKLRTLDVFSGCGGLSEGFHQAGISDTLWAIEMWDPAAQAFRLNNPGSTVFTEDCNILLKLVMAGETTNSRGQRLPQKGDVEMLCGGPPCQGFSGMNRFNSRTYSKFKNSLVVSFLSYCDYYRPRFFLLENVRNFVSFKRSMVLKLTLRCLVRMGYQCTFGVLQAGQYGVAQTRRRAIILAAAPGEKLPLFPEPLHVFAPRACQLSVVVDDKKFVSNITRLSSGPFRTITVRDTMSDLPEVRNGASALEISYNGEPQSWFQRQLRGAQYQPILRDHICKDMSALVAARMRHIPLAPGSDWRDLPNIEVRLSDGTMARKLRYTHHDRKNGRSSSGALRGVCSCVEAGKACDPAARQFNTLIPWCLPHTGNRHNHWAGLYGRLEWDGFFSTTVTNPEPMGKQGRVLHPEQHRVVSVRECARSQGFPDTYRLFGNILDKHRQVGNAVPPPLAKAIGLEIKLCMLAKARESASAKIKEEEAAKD

Consider `CCc1c(C#N)c(SC(C(N)=O)c2ccccc2)nc(N2CCN(C(=O)C3(N)CCOCC3)CC2)c1C#N` (stereo not shown) [Example 141, 2-((6-(4-(4-Aminotetrahydro-2H-pyran-4-carbonyl)piperazin-1-yl)-3,5-dicyano-4-ethylpyridin-2-yl)thio)-2-phenylacetamide, Trifluoroacetic Acid Salt], for which the “DNMT1 BioChemical (pIC50 category)” value on DNMT1 is given as “D (Category D: ≥6.5)”. Further, the EC50 in assay [1] is less than 316 nM.

On to `CCc1c(C#N)c(SC(C(N)=O)c2ccccc2)nc(N(C)CC(C)(O)C(N)=O)c1C#N` (stereo not shown) [Example 261, 3-((6-((2-Amino-2-oxo-1-phenylethyl)thio)-3,5-dicyano-4-ethylpyridin-2-yl)(methyl)amino)-2-hydroxy-2-methylpropanamide], for which, at DNMT1, the IC50 is 316 to 1000 nM. For the same compound, the EC50 in assay [1] was 1000 to 31600 nM.

`CCc1c(C#N)c(SC(C(N)=O)c2ccccc2)nc(N2CCC(CO)(NCCO)CC2)c1C#N` (stereo not shown) [Example 661, 2-((3,5-dicyano-4-ethyl-6-(4-((2-hydroxyethyl)amino)-4-(hydroxymethyl)piperidin-1-yl)pyridin-2-yl)thio)-2-phenylacetamide]: the “DNMT1 BioChemical (pIC50 category)” value at DNMT1 is listed as “D (Category D: ≥6.5)”. Also, the EC50 in assay [1] was 1000 to 31600 nM.

With `CCc1c(C#N)c(SCc2ccc(N(C)S(C)(=O)=O)cc2)nc(N2CCOC(CN3CCCC3)C2)c1C#N` (stereo not shown) [Example 574, N-(4-(((3,5-dicyano-4-ethyl-6-(2-(pyrrolidin-1-ylmethyl)morpholino)pyridin-2-yl)thio)methyl)phenyl)-N-methylmethanesulfonamide], the “DNMT1 BioChemical (pIC50 category)” value on DNMT1 is on record as “D (Category D: ≥6.5)”. In assay [1], the EC50 was less than 316 nM.

`CCc1c(C#N)c(SCc2ccc(NS(C)(=O)=O)cc2)nc(N2CCCN(C)CC2)c1C#N` [Example 299, N-(4-(((3,5-Dicyano-4-ethyl-6-(4-methyl-1,4-diazepan-1-yl)pyridin-2-yl)thio)methyl)phenyl) methanesulfonamide]: on DNMT1, the “DNMT1 BioChemical (pIC50 category)” value is recorded as “D (Category D: ≥6.5)”. Further, the EC50 in assay [1] was 316 to 1000 nM.

`CCc1c(C#N)c(SC(C(N)=O)c2ccccc2)nc(N(C)CCN(C)CC)c1C#N` (stereo not shown) [Example 483, 2-(3,5-dicyano-4-ethyl-6-((2-(ethyl(methyl)amino)ethyl)(methyl)amino)pyridin-2-ylthio)-2-phenylacetamide]: the “DNMT1 BioChemical (pIC50 category)” value on DNMT1 is given as “D (Category D: ≥6.5)”. The EC50 in assay [1] was less than 316 nM.

As to `CCc1c(C#N)c(SC(C(N)=O)c2ccccc2)nc(N2CCC(NC)C2)c1C#N` (stereo not shown) [Example 521, 2-((3,5-dicyano-4-ethyl-6-(3-(methylamino)pyrrolidin-1-yl)pyridin-2-yl)thio)-2-phenylacetamide], on DNMT1, the “DNMT1 BioChemical (pIC50 category)” value was “D (Category D: ≥6.5)”. Moreover, the EC50 in assay [1] is less than 316 nM.

As to `CCc1c(C#N)c(S[C@@H](C(N)=O)c2ccc(OC)cc2)nc(N2CC[C@H](O)C2)c1C#N` [Example 422, (R)-2-((3,5-dicyano-4-ethyl-6-((S)-3-hydroxypyrrolidin-1-yl)pyridin-2-yl)thio)-2-(4-methoxyphenyl)acetamide], the “DNMT1 BioChemical (pIC50 category)” value at DNMT1 is “D (Category D: ≥6.5)”. In addition, in assay [1], the EC50 is less than 316 nM.

As for `CCc1c(C#N)c(SC(C(N)=O)c2ccccc2)nc(N2CC[C@@](F)(CN)C2)c1C#N` (stereo partly drawn) [Example 632, 2-((6-((R)-3-(aminomethyl)-3-fluoropyrrolidin-1-yl)-3,5-dicyano-4-ethylpyridin-2-yl)thio)-2-phenylacetamide], at DNMT1, the “DNMT1 BioChemical (pIC50 category)” value is “D (Category D: ≥6.5)”. In assay [1], the EC50 was 1000 to 31600 nM.

As for `CCc1c(C#N)c(SC(C(N)=O)c2ccccc2)nc(N(C)CCN2CCC[C@H]2C)c1C#N` (stereo partly drawn) [Example 459, 2-((3,5-dicyano-4-ethyl-6-(methyl(2-((R)-2-methylpyrrolidin-1-yl)ethyl)amino)pyridin-2-yl)thio)-2-phenylacetamide], the “DNMT1 BioChemical (pIC50 category)” value at DNMT1 was “D (Category D: ≥6.5)”. Moreover, the EC50 in assay [1] was less than 316 nM.

Turning to `CCc1c(C#N)c(SC(C(N)=O)c2ccccc2)nc(N(C)CCN2CCCCC2)c1C#N` (stereo not shown) [Example 478, 2-((3,5-dicyano-4-ethyl-6-(methyl(2-(piperidin-1-yl)ethyl)amino)pyridin-2-yl)thio)-2-phenylacetamide], the “DNMT1 BioChemical (pIC50 category)” value at DNMT1 is recorded as “D (Category D: ≥6.5)”. In addition, the EC50 in assay [1] was less than 316 nM.

`CCc1c(C#N)c(SC(C(N)=O)c2ccccc2)nc(N2CCC(NCC(C)(C)OC)CC2)c1C#N` (stereo not shown) [Example 446, 2-((3,5-dicyano-4-ethyl-6-(4-((2-methoxy-2-methylpropyl)amino)piperidin-1-yl)pyridin-2-yl)thio)-2-phenylacetamide]: the “DNMT1 BioChemical (pIC50 category)” value on DNMT1 is listed as “D (Category D: ≥6.5)”. The EC50 in assay [1] is less than 316 nM.

With `CCc1c(C#N)c(SC(C(N)=O)c2ccccc2)nc(N2CCC(N3CCCC3)CC2)c1C#N` (stereo not shown) [Example 411, 2-((3,5-Dicyano-4-ethyl-6-(4-(pyrrolidin-1-yl)piperidin-1-yl)pyridin-2-yl)thio)-2-phenylacetamide], the “DNMT1 BioChemical (pIC50 category)” value on DNMT1 was “D (Category D: ≥6.5)”. In addition, the EC50 in assay [1] is less than 316 nM.

For the compound `CCc1c(C#N)c(SC(C(N)=O)c2ccccc2)nc(N(C)CC(=O)NC2(CO)COC2)c1C#N` (stereo not shown) [Example 675, 2-((6-((2-amino-2-oxo-1-phenylethyl)thio)-3,5-dicyano-4-ethylpyridin-2-yl)(methyl)amino)-N-(3-(hydroxymethyl)oxetan-3-yl)acetamide], the IC50 on DNMT1 was less than 316 nM. The EC50 in assay [1] was 316 to 1000 nM.

The record behind these values is patent US10975056B2 (GlaxoSmithKline Intellectual Property Development Limited, priority 2016, dated 2021).
